From patent US8987192B2, “Potent and selective mediators of cholesterol efflux” (The Regents of the University of California, priority 2006, dated 2015)

Tests used:
[1] = tested on: J774 macrophages; assay: Pretreatment of macrophages, then Apo A-I-mediated cholesterol efflux; assay type: cell-based, mouse; conditions: 4 hour pretreatment, vs serum-free medium alone; Apo A-I 10 μg/ml
Procedure: To determine whether conditioning of macrophages with the polypeptide of SEQ ID NO:4 upregulates cholesterol efflux to native apolipoproteins, J774 macrophages labeled with [^3H]cholesterol were induced for the ABCA1 response using a cAMP analog (24 h). This was followed by a 4 hour treatment (no cAMP) with serum-free medium alone or medium containing the polypeptide of SEQ ID NO:4. After 4 h with no cAMP, cholesterol efflux was initiated by adding fresh medium containing Apo A-I (10 μg/ml). Polypeptide of SEQ ID NO:4 pretreatment produced a 40% increase in Apo A-I-mediated cholesterol efflux from macrophages, compared to pretreatment with serum-free medium alone (see, FIG. 6).

[2] = tested on: Apolipoprotein E knock-out mice; assay: Atherosclerosis in Apolipoprotein E knock-out mice on Western diet, pooled series (Example 19); assay type: in vivo, mouse
Procedure: The polypeptide of SEQ ID NO:4 and its Y26 analog have been evaluated with respect to ability to inhibit atherosclerosis in Apolipoprotein E knock-out mice. The mice were given Western diet for 18 weeks and then randomized to receive saline, free polypeptide or polypeptide-phospholipid complex. […] The degree of atherosclerosis was then determined in whole aorta and aortic root/sinus. Three experimental series were performed. […] The results are equal to or better than previously have been obtained with IV infusions of 40 mg/kg Apolipoprotein A-I Milano/phospholipids complex into Apo E knock-out mice (Shah et al., Circ., 97:780-5, 1998).
As noted above, data from three experimental series were pooled. Pooling of data is justified as only minor changes in the procedures were made (21 injections at 30 mg/kg over 42 and 21 days, respectively), and the diet regimens and sources of mice and polypeptide, respectively, were the same. In the first experiment S26 was substituted for Y26.

[3] = tested on: Apolipoprotein E deficient (ApoE −/−) mice; assay: In vivo cholesterol efflux and Reverse Cholesterol Transport from injected macrophage foam-cells; set-up: species or system mouse; conditions: 20 mg/kg IP
Procedure: Apolipoprotein E deficient (ApoE −/−) mice at 6 months of age were used to evaluate the ability of the polypeptide of SEQ ID NO:4 to stimulate cholesterol efflux and Reverse Cholesterol Transport (RCT) in vivo. [^3H]cholesterol-labeled macrophage foam-cells (i.e., loaded with acetylated LDL) were injected into the intraperitoneal (IP) cavity of Apo E −/− mice in the presence and absence of the polypeptide of SEQ ID NO:4 (20 mg/kg). The polypeptide stimulated cholesterol efflux in vivo, as judged by a pronounced (2-fold) increase in the levels of macrophage derived [^3H]cholesterol appearing in plasma at 8 and 24 hour post-injection, compared to saline vehicle alone (see, FIG. 20). This was accompanied by a greater than 2-fold increase in fecal sterol secretion at 8 and 24 h. In general, the effects of the peptide were relatively long-lived persisting up to 48 h.

[4] = tested on: Interleukin-6; assay: Serum Interleukin-6 in ApoE -/- mice (fluorescent bead immunoassay); assay type: in vivo, mouse
Description: Apolipoprotein E deficient (ApoE −/−) mice at 6 weeks old were given a Western diets for 18 weeks before commencing treatment. Once daily, intraperitoneal injections were given as saline or the polypeptide of SEQ ID NO:4 (n=6-7 per group). At termination, serum was collected and analyzed for Interleukin-6 concentration by a fluorescent bead immunoassay utilizing flow cytometry (BMS820FF). Mice treated with the polypeptide of SEQ ID NO:4 had about 68% lower serum levels of IL-6 (see, FIG. 22).

[5] = target: ABCA1 (Mus musculus, UniProt P41233); assay: ABCA1 protein stabilization in J774 macrophages (Western blot); assay type: cell-based; set-up: endogenous in cells; host or cells: J774 mouse macrophages; conditions: 6 hours serum-free medium, no cAMP
Procedure: In some embodiments, the stabilization of ABCA is measured by direct measurement of ABCA (e.g., ABCA protein, or nucleic acid) using a cell based assay. Cell based assays can be performed in any cells in which ABCA is expressed (e.g., J774 macrophages), including cells which have been transfected with ABCA (e.g. HeLa cells). Any cell type can be used. For example, J774 macrophages can be used to assess relative ABCA1 protein levels in the presence and absence of polypeptides of the invention. The cells are first contacted with a compound that will induce ABCA (e.g., cAMP or a cAMP analogue such as, 8-bromo-cAMP) to upregulate ABCA (e.g., ABCA1) expression, then exposed to […] polypeptides of the invention in the absence of the cAMP stimulus to evaluate whether ABCA1 protein was stabilized or degraded. Relative levels of ABCA1 protein can be assessed using any means known in the art including, e.g., immunoblot analysis of cell membranes (Oram et al., J. Biol. Chem., 278:52379-52385 (2003)) or hybridization of nucleic acid probes to ABCA mRNA.
To test whether the polypeptides of the present invention stabilize cellular ABCA1 protein concentrations, J774 mouse macrophages were treated with a cAMP analogue (24 h) to upregulate ABCA1 expression. […] ABCA1 protein in cell lysates was determined by Western blot analysis. […]

[6] = 30 mg/kg IP, 6 weeks of treatment

Sequence of ABCA1 (P41233 whole entry): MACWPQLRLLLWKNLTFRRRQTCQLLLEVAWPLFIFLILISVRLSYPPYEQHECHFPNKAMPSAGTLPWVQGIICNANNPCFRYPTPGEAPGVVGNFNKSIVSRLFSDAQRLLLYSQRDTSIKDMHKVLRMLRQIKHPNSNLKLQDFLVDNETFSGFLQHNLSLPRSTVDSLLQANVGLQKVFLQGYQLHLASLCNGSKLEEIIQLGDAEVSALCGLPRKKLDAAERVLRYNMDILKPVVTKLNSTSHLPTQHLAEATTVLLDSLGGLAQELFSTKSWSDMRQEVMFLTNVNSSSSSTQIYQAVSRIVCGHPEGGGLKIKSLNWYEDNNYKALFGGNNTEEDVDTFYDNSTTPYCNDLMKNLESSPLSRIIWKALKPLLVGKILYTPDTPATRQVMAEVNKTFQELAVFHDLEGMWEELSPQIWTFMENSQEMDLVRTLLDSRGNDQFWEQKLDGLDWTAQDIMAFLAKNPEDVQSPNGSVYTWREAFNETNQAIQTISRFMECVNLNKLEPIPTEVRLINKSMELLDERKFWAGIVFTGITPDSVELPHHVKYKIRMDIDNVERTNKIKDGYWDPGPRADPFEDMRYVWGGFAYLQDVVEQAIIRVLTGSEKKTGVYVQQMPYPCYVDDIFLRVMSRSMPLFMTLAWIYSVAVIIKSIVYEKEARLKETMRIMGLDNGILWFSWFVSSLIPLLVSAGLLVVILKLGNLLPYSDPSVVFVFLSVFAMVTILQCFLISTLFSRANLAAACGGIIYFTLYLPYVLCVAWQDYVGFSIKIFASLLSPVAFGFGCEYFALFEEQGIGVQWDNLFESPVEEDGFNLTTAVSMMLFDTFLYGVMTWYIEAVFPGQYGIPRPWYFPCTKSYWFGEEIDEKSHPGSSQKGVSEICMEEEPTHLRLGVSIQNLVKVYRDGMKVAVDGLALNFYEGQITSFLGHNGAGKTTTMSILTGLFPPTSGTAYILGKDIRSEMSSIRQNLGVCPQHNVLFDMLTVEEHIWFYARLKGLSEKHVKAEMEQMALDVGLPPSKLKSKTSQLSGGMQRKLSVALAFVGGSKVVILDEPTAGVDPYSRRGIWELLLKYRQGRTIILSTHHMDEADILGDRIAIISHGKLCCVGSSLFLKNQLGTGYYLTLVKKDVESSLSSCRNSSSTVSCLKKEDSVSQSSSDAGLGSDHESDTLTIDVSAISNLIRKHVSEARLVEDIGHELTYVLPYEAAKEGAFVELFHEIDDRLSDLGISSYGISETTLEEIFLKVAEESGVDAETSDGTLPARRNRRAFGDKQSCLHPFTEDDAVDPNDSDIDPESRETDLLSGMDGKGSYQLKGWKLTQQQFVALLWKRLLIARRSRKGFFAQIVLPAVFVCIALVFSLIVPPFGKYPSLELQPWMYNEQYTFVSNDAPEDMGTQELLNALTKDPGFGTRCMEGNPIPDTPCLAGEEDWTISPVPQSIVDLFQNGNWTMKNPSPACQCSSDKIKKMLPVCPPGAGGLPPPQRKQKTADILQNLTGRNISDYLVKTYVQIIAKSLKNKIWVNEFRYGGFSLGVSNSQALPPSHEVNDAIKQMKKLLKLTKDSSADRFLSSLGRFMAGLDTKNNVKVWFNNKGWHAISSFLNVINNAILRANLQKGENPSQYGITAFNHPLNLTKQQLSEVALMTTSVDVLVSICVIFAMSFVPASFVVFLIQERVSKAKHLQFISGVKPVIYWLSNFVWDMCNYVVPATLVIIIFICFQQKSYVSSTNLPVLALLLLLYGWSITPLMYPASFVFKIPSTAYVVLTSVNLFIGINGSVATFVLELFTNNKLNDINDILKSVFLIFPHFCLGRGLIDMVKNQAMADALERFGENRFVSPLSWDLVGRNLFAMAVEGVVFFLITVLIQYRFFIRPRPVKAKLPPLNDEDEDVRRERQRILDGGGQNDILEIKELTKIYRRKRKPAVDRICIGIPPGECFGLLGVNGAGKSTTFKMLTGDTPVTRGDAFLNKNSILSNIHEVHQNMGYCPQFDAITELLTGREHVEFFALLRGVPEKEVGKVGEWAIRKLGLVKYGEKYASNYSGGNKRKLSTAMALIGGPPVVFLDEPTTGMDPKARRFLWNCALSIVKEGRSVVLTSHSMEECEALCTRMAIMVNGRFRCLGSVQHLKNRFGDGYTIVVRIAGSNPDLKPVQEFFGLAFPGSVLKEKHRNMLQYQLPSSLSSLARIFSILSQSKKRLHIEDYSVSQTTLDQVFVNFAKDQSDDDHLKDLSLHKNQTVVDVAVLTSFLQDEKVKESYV

## EVRSKLEEWFAAFREFAEEFLARLKS (ATI-5261 amphipathic alpha-helix polypeptide core sequence selectively binds HDL, high-affinity ligand for ATP-binding cassette transporter A1 (ABCA1), ABCA1-lipid cholesterol efflux, ABCA1-stablization, anti-oxidant and anti- inflammatory activity) [SEQ ID NO:4]
[1]
  increase in Apo A-I-mediated cholesterol efflux after pretreatment: 40%
[2]; [6]
  lipid-content of aortic sinus plaque: decreased the lipid-content of aortic sinus plaque
  plaque lesion area over the whole aorta: reduced plaque lesion area over the whole aorta
[2]; 30 mg/kg IP, 21 injections, pooled data of three series
  antiatherosclerotic effect (whole aorta and aortic root/sinus): significant antiatherosclerotic effects
[2]; pooled data
  p versus control, FIG. 19A percent of lipid in plaque in whole aorta: < 0.0040
[3]
  persistence of effects: up to 48 h
[3]; 8 and 24 h
  increase in fecal sterol secretion: greater than 2 fold
[3]; 8 and 24 hour post-injection, vs saline
  increase in macrophage derived [3H]cholesterol in plasma: 2 fold
[4]; mouse, in vivo
  serum IL-6 versus saline (in words): lowered levels of the inflammatory cytokine IL-6
[4]; once daily IP, vs saline, after 18 weeks Western diet
  lower serum levels of IL-6: about 68%
[5]
  ABCA1 protein in cell lysates after cAMP withdrawal: prevented the disappearance of ABCA1 protein
